From patent US11098055B2, “Ester ACC inhibitors and uses thereof” (Gilead Apollo, LLC, priority 2015, dated 2021)
Converted amounts (≈) assume the structure as drawn. Like-named read-outs stand apart in the source and are kept apart here.

Key:
[1] = test system: Collectotrichum graminicola (Cg); experiment: Growth inhibition assay of fungal pathogens; format: cell-based; details: 48 h, read-out: Concentration at 90% Inhibition Cg
How it was run: (§1)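 Spore suspension in 17% V8 broth; cpd final 50/10/2 or 2/0.4/0.08 ppm, 2% DMSO. OD600 at 24 + 48 h, media blank subtracted, plus visual scoring. % inhibition at 48 h vs DMSO control.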

[2] = test system: Phytophthora capsici (Pc); experiment: Growth inhibition assay of fungal pathogens; format: cell-based; details: 48 h, read-out: Concentration at 90% Inhibition Pc
How it was run: as §1

Rhizoctonia solani (Rs) = experiment: Growth inhibition assay of fungal pathogens; format: cell-based; details: 48 h, read-out: Concentration at 90% Inhibition Rs
How it was run: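 Percent growth inhibition is scored at 48 h, by OD600 (blank-subtracted) and visual rating against the 2% DMSO control. Compounds were tested at final 50, 10, 2 ppm or 2, 0.4, 0.08 ppm on pathogen spores diluted in 17% V8 medium; mycelial plugs in ¼ PDB were used for Rhizoctonia.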

Botrtyis cinerea (Bc) = experiment: Growth inhibition assay of fungal pathogens; format: cell-based; details: 48 h, read-out: Concentration at 90% Inhibition Bc
How it was run: as §1

Diplodia maydis (Dm) = experiment: Growth inhibition assay of fungal pathogens; format: cell-based; details: Stenocarpella maydis, 48 h, read-out: Concentration at 90% Inhibition Dm
How it was run: as §1

Septoria tritici (St) = experiment: Growth inhibition assay of fungal pathogens; format: cell-based; details: Zymoseptoria tritici, 48 h, read-out: Concentration at 90% Inhibition St
How it was run: as §1

[3] = test system: Fusarium moniliforme (Fm); experiment: Growth inhibition assay of fungal pathogens; format: cell-based; details: Fusarium verticillioides, 48 h, read-out: Concentration at 90% Inhibition Fm
How it was run: as §1

[4] = test system: Fusarium virguliforme (Fv); experiment: Growth inhibition assay of fungal pathogens; format: cell-based; details: 48 h, read-out: Concentration at 90% Inhibition Fv
How it was run: as §1

fACC2 = fACC2 (UniProt Q00955); experiment: In vitro ACC2 inhibition assay (ADP-Glo), fungal ACC2; format: biochemical
fACC2, sequence (Q00955 whole entry): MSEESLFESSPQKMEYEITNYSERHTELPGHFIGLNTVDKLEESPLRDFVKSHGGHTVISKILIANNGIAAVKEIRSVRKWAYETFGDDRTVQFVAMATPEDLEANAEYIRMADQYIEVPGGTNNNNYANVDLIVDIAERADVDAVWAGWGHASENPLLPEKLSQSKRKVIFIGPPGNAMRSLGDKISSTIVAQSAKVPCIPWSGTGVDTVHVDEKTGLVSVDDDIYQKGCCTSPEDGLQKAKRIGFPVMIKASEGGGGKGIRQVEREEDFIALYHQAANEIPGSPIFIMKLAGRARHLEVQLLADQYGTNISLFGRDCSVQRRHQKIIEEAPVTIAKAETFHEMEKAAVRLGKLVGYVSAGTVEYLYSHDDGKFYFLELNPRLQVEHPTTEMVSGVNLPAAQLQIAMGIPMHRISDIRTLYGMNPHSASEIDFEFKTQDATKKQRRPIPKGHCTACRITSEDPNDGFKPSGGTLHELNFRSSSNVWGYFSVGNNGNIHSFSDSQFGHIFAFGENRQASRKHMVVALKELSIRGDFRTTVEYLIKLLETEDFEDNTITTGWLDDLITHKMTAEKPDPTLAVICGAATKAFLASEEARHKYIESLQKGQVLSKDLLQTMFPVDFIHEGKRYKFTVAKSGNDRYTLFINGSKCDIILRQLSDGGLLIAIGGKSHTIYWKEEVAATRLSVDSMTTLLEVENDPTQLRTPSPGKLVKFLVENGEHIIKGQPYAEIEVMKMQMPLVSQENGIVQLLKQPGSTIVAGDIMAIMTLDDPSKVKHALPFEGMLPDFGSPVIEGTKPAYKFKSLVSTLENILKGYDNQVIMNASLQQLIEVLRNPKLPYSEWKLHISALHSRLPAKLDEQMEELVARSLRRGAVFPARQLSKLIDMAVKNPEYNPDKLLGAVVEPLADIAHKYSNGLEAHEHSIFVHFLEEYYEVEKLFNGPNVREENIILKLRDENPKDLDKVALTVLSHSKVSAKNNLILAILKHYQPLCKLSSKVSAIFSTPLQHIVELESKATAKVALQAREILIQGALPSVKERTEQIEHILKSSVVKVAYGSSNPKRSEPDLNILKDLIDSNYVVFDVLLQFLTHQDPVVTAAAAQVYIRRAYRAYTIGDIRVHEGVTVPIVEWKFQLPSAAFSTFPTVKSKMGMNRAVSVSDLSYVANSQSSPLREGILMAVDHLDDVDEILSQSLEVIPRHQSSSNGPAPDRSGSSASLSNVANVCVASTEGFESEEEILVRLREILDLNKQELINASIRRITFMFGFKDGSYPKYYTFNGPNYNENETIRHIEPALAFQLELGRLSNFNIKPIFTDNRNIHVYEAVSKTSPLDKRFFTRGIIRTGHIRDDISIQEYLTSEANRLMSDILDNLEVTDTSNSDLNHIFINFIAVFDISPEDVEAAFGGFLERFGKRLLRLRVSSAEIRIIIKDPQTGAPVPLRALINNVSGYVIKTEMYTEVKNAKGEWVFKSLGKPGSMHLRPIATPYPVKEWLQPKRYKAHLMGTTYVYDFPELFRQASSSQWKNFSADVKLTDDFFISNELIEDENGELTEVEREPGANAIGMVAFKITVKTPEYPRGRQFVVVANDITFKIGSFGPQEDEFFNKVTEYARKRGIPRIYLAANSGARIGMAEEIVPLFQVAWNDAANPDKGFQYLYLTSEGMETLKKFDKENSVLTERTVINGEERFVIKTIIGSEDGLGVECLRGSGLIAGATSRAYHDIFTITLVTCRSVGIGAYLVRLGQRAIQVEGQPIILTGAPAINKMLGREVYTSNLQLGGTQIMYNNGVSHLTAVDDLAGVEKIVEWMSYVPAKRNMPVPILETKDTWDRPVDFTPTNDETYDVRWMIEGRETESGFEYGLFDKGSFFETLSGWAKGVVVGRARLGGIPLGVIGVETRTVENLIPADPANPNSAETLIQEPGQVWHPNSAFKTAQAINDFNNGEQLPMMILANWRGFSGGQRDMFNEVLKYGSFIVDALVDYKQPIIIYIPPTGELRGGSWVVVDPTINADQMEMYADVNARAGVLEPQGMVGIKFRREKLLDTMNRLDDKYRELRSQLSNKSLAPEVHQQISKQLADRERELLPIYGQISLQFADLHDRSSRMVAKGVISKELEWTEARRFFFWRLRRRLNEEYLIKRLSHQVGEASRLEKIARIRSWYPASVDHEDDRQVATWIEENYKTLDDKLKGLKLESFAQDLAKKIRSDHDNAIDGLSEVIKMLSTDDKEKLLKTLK
How it was run: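 ADP-Glo luminescent ADP detection with 5 nM ACC2, 20 μM ATP, 20 μM acetyl-CoA, 12 mM NaHCO3, 2 mM DTT, 5% DMSO; compound (30 μM-0.00051 μM, 11 points) preincubated 15 min, reaction 60 min at room temperature. Percent inhibition against DMSO and positive controls; IC50 by four-parameter nonlinear fit.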

SMILES	IC90 ([1]; Table 4b) [µg/mL]	IC90 ([2]; Table 4b) [µg/mL]	IC90 (Rhizoctonia solani (Rs); Table 4b) [µg/mL]	IC90 (Botrtyis cinerea (Bc); Table 4b) [µg/mL]	IC90 (Diplodia maydis (Dm); Table 4b) [µg/mL]	IC90 (Septoria tritici (St); Table 4b) [µg/mL]	IC90 ([3]; Table 4b) [µg/mL]	IC90 ([4]; Table 4b) [µg/mL]	IC50 (fACC2; Table 2b (additional results)) [nM]	IC90 ([1]; Table 4a) [µg/mL]	IC90 ([2]; Table 4a) [µg/mL]	IC90 (Rhizoctonia solani (Rs); Table 4a) [µg/mL]	IC90 (Botrtyis cinerea (Bc); Table 4a) [µg/mL]	IC90 (Diplodia maydis (Dm); Table 4a) [µg/mL]	IC90 (Septoria tritici (St); Table 4a) [µg/mL]	IC90 ([3]; Table 4a) [µg/mL]	IC90 ([4]; Table 4a) [µg/mL]	IC50 (fACC2; Table 2a) [nM]
CCOC(=O)c1sc2c(c1C)c(=O)n(C(C)(C)C(=O)N1CCCC1)c(=O)n2C[C@H](O)c1cc(F)ccc1OC [Compound I-22, (R)-ethyl 1-(2-(5-fluoro-2-methoxyphenyl)-2-hydroxyethyl)-5-methyl-3-(2-methyl-1-oxo-1-(pyrrolidin-1-yl)propan-2-yl)-2,4-dioxo-1,2,3,4-tetrahydrothieno[2,3-d]pyrimidine-6-carboxylate]	10 (≈ 17.8 µM)	≥ 50	0.08 (≈ 0.142 µM)	2 (≈ 3.56 µM)	≥ 50	≥ 50	2 (≈ 3.56 µM)	2 (≈ 3.56 µM)	0.3 to 3									
CCOC(=O)c1sc2c(c1C)c(=O)n(C(C)(C)C(=O)N1CCCC1)c(=O)n2C[C@H](OCCOC)c1cc(F)ccc1OC [Compound I-13, (R)-ethyl 1-(2-(5-fluoro-2-methoxyphenyl)-2-(2-methoxy-ethoxy)ethyl)-5-methyl-3-(2-methyl-1-oxo-1-(pyrrolidin-1-yl)propan-2-yl)-2,4-dioxo-1,2,3,4-tetrahydrothieno[2,3-d]pyrimidine-6-carboxylate]	2 (≈ 3.23 µM)	≥ 50	10 (≈ 16.1 µM)	2 (≈ 3.23 µM)	10 (≈ 16.1 µM)	≥ 50	0.4 (≈ 0.645 µM)	2 (≈ 3.23 µM)		2 (≈ 3.23 µM)	≥ 50	≥ 50	2 (≈ 3.23 µM)	≥ 50	≥ 50	0.4 (≈ 0.645 µM)	2 (≈ 3.23 µM)	0.6 to 3
CCNC(=O)[C@@H](C)n1c(=O)c2c(C)c(C(=O)OCC)sc2n(C[C@H](OCCC#N)c2cc(F)ccc2OC)c1=O [Compound I-41, ethyl 1-((R)-2-(2-cyanoethoxy)-2-(5-fluoro-2-methoxy-phenyl)ethyl)-3-((R)-1-(ethylamino)-1-oxopropan-2-yl)-5-methyl-2,4-dioxo-1,2,3,4-tetrahydrothieno[2,3-d]pyrimidine-6-carboxylate]	10 (≈ 17.4 µM)	≥ 50	≥ 50	10 (≈ 17.4 µM)	≥ 50	≥ 50	2 (≈ 3.48 µM)	≥ 50	0.3 to 3									
CCOC(=O)c1sc2c(c1C)c(=O)n(C(C)(C)C(N)=O)c(=O)n2C[C@H](OCCC#N)c1cc(F)ccc1OC [Compound I-14, (R)-ethyl 3-(1-amino-2-methyl-1-oxopropan-2-yl)-1-(2-(2-cyanoethoxy)-2-(5-fluoro-2-methoxyphenyl)ethyl)-5-methyl-2,4-dioxo-1,2,3,4-tetrahydro-thieno[2,3-d]pyrimidine-6-carboxylate]	≥ 50	≥ 50	10 (≈ 17.8 µM)	2 (≈ 3.57 µM)	≥ 50	≥ 50	0.4 (≈ 0.714 µM)	10 (≈ 17.8 µM)	0.3 to 3	≥ 50	≥ 50	≥ 50	2 (≈ 3.57 µM)	≥ 50	≥ 50	0.4 (≈ 0.714 µM)	≥ 50	0.6 to 3
CCOC(=O)c1sc2c(c1C)c(=O)n(C(C)(C)C(=O)NC(C)C)c(=O)n2CCc1cc(F)ccc1OC [Compound I-40, ethyl 1-(5-fluoro-2-methoxyphenethyl)-3-(1-(isopropylamino)-2-methyl-1-oxopropan-2-yl)-5-methyl-2,4-dioxo-1,2,3,4-tetrahydrothieno[2,3-d]pyrimidine-6-carboxylate]	10 (≈ 18.7 µM)	≥ 50	≥ 50	2 (≈ 3.75 µM)	10 (≈ 18.7 µM)	≥ 50	2 (≈ 3.75 µM)	2 (≈ 3.75 µM)	3 to 10									
CCOC(=O)c1sc2c(c1C)c(=O)n([C@@H](C)C(=O)NC(C)C)c(=O)n2C[C@H](O)c1cc(F)ccc1OC [Compound I-44, ethyl 1-((R)-2-(5-fluoro-2-methoxyphenyl)-2-hydroxyethyl)-3-((S)-1-(isopropylamino)-1-oxopropan-2-yl)-5-methyl-2,4-dioxo-1,2,3,4-tetrahydrothieno[2,3-d]pyrimidine-6-carboxylate]	≥ 50	≥ 50	≥ 50	10 (≈ 18.7 µM)	≥ 50	≥ 50	≥ 50	10 (≈ 18.7 µM)	10 to 40									
CCOC(=O)c1sc2c(c1C)c(=O)n(C(C)(C)C(=O)NC(C)C)c(=O)n2C[C@H](OCC#N)c1cc(F)ccc1OC [Compound I-33, ethyl (R)-1-(2-(cyanomethoxy)-2-(5-fluoro-2-methoxy-phenyl)ethyl)-3-(1-(isopropylamino)-2-methyl-1-oxopropan-2-yl)-5-methyl-2,4-dioxo-1,2,3,4-tetrahydrothieno[2,3-d]pyrimidine-6-carboxylate]	2 (≈ 3.4 µM)	≥ 50	0.4 (≈ 0.68 µM)	0.4 (≈ 0.68 µM)	2 (≈ 3.4 µM)	10 (≈ 17 µM)	0.08 (≈ 0.136 µM)	0.4 (≈ 0.68 µM)	0.3 to 3									
CCOC(=O)c1sc2c(c1C)c(=O)n([C@@H](C)C(=O)NC(C)C)c(=O)n2C[C@H](OCCC#N)c1cc(F)ccc1OC [Compound I-20, ethyl 1-((R)-2-(2-cyanoethoxy)-2-(5-fluoro-2-methoxy-phenyl)ethyl)-3-((S)-1-(isopropylamino)-1-oxopropan-2-yl)-5-methyl-2,4-dioxo-1,2,3,4-tetrahydrothieno[2,3-d]pyrimidine-6-carboxylate]	10 (≈ 17 µM)	≥ 50	≥ 50	2 (≈ 3.4 µM)	10 (≈ 17 µM)	≥ 50	0.4 (≈ 0.68 µM)	10 (≈ 17 µM)	0.3 to 3									
CCOC(=O)c1sc2c(c1C)c(=O)n([C@H](C)C(=O)N1CCCC1)c(=O)n2C[C@H](OCCC#N)c1cc(F)ccc1OC [Compound I-24, ethyl 1-((R)-2-(2-cyanoethoxy)-2-(5-fluoro-2-methoxy-phenyl)ethyl)-5-methyl-2,4-dioxo-3-((R)-1-oxo-1-(pyrrolidin-1-yl)propan-2-yl)-1,2,3,4-tetrahydrothieno[2,3-d]pyrimidine-6-carboxylate]	2 (≈ 3.33 µM)	≥ 50	0.08 (≈ 0.133 µM)	2 (≈ 3.33 µM)	2 (≈ 3.33 µM)	≥ 50	0.08 (≈ 0.133 µM)	2 (≈ 3.33 µM)	0.3 to 3									
CCOC(=O)c1sc2c(c1C)c(=O)n([C@H](C)C(=O)NC(C)C)c(=O)n2C[C@H](OCCC#N)c1cc(F)ccc1OC [Compound I-21, ethyl 1-((R)-2-(2-cyanoethoxy)-2-(5-fluoro-2-methoxyphenyl)ethyl)-3-((R)-1-(isopropylamino)-1-oxopropan-2-yl)-5-methyl-2,4-dioxo-1,2,3,4-tetrahydrothieno[2,3-d]pyrimidine-6-carboxylate]	0.4 (≈ 0.68 µM)	10 (≈ 17 µM)	0.08 (≈ 0.136 µM)	0.4 (≈ 0.68 µM)	0.4 (≈ 0.68 µM)	≥ 50	0.08 (≈ 0.136 µM)	0.4 (≈ 0.68 µM)	0.3 to 3									
CCOC(=O)c1sc2c(c1C)c(=O)n(C(C)(C)C(N)=O)c(=O)n2C[C@H](OCCOC)c1cc(F)ccc1OC [Compound I-10, (R)-ethyl 3-(1-amino-2-methyl-1-oxopropan-2-yl)-1-(2-(5-fluoro-2-methoxyphenyl)-2-(2-methoxyethoxy)ethyl)-5-methyl-2,4-dioxo-1,2,3,4-tetrahydrothieno[2,3-d]pyrimidine-6-carboxylate]	≥ 50	≥ 50	≥ 50	≥ 50	≥ 50	≥ 50	10 (≈ 17.7 µM)	≥ 50	3 to 10	≥ 50	≥ 50	≥ 50	≥ 50	≥ 50	≥ 50	≥ 50	≥ 50	3 to 10
CCOC(=O)c1sc2c(c1C)c(=O)n([C@@H](C)C(=O)N(C)C(C)C)c(=O)n2C[C@H](OCCC#N)c1cc(F)ccc1OC [Compound I-28, ethyl 1-((R)-2-(2-cyanoethoxy)-2-(5-fluoro-2-methoxy-phenyl)-ethyl)-3-((S)-1-(isopropyl(methyl)amino)-1-oxopropan-2-yl)-5-methyl-2,4-dioxo-1,2,3,4-tetrahydrothieno[2,3-d]pyrimidine-6-carboxylate]	10 (≈ 16.6 µM)	≥ 50	0.08 (≈ 0.133 µM)	2 (≈ 3.32 µM)	10 (≈ 16.6 µM)	10 (≈ 16.6 µM)	0.4 (≈ 0.664 µM)	0.4 (≈ 0.664 µM)	0.3 to 3									
